We go through six compounds from ChEMBL document CHEMBL1135557 (Bioorg Med Chem Lett, 2002).

Each structure is given as a SMILES string. In brackets after ≈: the same amount, converted by molar mass.

The target in assay [1] is Tubulin (Sus scrofa, UniProt P02554+P02550). The experiment in a line: Concentration of compound required to inhibit tubulin polymerization (Microtubule assembly) was determined by the turbidity formation after 20 min of incubation. The assay is classed as functional.
For assay [2], the system named is HCT-116. Description: In vitro cytotoxic activity (growth inhibition) of compound against HCT 116 cancer cell line was determined. The assay is classed as functional. The settings on record: Homo sapiens.
The test system of assay [3] is PC-12. Description: In vitro cytotoxic activity (growth inhibition) of compound against PC-12 human cancer cell line was determined.
In assay [4] the target is Tubulin alpha chain (Sus scrofa) (UniProt P02550). The experiment in a line: Inhibitory binding percentage of compound towards colchicine site in tubulin using tubulin-[3H]colchicine as radioligand at a concentration of 100 uM.
The target is the same in assay [5]. Description: Inhibitory binding percentage of compound towards colchicine site in tubulin using tubulin-[3H]colchicine as radioligand at a concentration of 200 uM.

Tubulin alpha chain (Sus scrofa), sequence (P02550 whole entry, looked up): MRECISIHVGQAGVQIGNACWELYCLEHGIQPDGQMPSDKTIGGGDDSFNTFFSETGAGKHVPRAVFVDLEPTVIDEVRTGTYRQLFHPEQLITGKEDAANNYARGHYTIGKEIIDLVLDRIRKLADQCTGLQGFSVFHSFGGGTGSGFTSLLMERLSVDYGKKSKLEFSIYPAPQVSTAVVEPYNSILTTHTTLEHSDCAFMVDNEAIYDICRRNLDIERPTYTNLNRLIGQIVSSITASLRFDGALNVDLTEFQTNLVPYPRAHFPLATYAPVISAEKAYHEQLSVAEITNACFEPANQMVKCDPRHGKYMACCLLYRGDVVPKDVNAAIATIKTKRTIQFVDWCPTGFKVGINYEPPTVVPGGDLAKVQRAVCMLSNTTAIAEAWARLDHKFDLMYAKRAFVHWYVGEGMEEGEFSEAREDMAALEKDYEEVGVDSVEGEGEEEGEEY

In assay [1], `Cc1c(/C=C/CN2CCN(c3cccc(Cl)c3)CC2)cnn1-c1ncccn1.Cl` returned an IC50 of 35.96 µM. In addition, the results for the 50% growth inhibitory concentration (GI50) in assay [2] and in assay [3] were 0.254 µg/mL and 0.181 µg/mL, respectively.

Take `COc1cc2c(c(OC)c1OC)-c1ccc(OC)c(=O)cc1[C@@H](NC(C)=O)CC2` [COLCHICINE]: the Inhibitory binding in assay [4] came out at 98%; in assay [5], 100%. Besides, the GI50 in assay [2] came to 0.0084 µg/mL (≈ 0.021 µM); in assay [3], 0.0315 µg/mL (≈ 0.0789 µM).

`Cc1c(/C=C/CN2CCN(c3cc(F)cc(F)c3)CC2)cnn1-c1nccc(N)n1.Cl` had a 50% inhibitory concentration (IC50) in assay [1] of 11.05 µM. Besides, the GI50 amounted to 0.0208 µg/mL in assay [2] and 0.0216 µg/mL in assay [3].

In the case of `CC[C@]1(O)C[C@@H]2CN(CCc3c([nH]c4ccccc34)[C@@](C(=O)OC)(c3cc4c(cc3OC)N(C)[C@H]3[C@@](O)(C(=O)OC)[C@H](OC(C)=O)[C@]5(CC)C=CCN6CC[C@]43[C@@H]65)C2)C1` [VINBLASTINE], the GI50 in assay [2] was found to be 0.001 µg/mL (≈ 0.00123 µM); in assay [3], 0.0102 µg/mL (≈ 0.0126 µM).

The compound `Cc1c(/C=C/CN2CCN(c3cc(F)cc(F)c3)CC2)cnn1-c1ccnc(N)n1.Cl` gave an IC50 in assay [1] of 3.72 µM. Also, the GI50 in assay [2] is 0.0329 µg/mL; in assay [3], 0.0199 µg/mL.

The compound `Cc1c(/C=C/CN2CCN(c3cc(F)cc(F)c3)CC2)cnn1-c1ncccn1.Cl` registered an IC50 in assay [1] of 9.08 µM. For the same compound, the Inhibitory binding in assay [4] amounted to 82%; in assay [5], 93%. Also, the GI50 in assay [2] turned out to be 0.0701 µg/mL; in assay [3], 0.0625 µg/mL.
